Test results published in patent publication US11136597B2, “Compositions for enhancing targeted gene editing and methods of use thereof” (Yale University, priority 2016, dated 2021).

Columns and labels:
[1] = tested on: 120 bp double-stranded DNA fragments containing β-globin sequences; assay: Gel mobility shift assay of SCD tcPNAs; format: binding, human; settings: physiological conditions
Text: Each 120 bp dsDNA contained the binding site for the respective tcPNAs.

[2] = tested on: CD117+ cells from β-globin/GFP transgenic mice; assay: Ex vivo gene editing in pre-sorted CD117+ cells with or without SCF or c-Kit pathway kinase inhibitors; format: cell-based, mouse; settings: for gene editing frequency in pre-sorted CD117+ cells in presence of kinase inhibitor: γtcPNA4/donor DNA NPs plus inhibitor: dasatinib 200 nM, MEK162 1.0 μM, BKM120 3.0 μM
Protocol: For CD117+ cell experiments, Iscove's Modified Dulbecco's Media (IMDM) media containing insulin (10 ng/ml), FCS (10%) and erythropoietin (1 U/ml) was used to culture CD117+ cells after isolation using magnetic separation. Where indicated, 3 μg/ml of SCF (Recombinant murine SCF, catalog #250-03, PeproTech, Rocky Hill, N.J.;) was added prior to nanoparticle treatment. 2 mg/ml of NPs were used to treat 50,000-100,000 CD117+ cells in triplicate for 48 hrs in the above media, followed by flow cytometry analyses as above. Inhibitors were used at concentrations of 200 nM (dasatinib), 1.0 μM (MEK162) and 3.0 μM (BKM120). Dasatanib was obtained from Cayman Chemical (Ann Arbor, Mich.; item #11498) and dissolved according to manufacturer's protocol. MEK162 and BKM120 were obtained from Dr. Harriet Kluger, Yale University.
BD Bioscience kit catalog #558451 (BDImag™ Hematopoietic Progenitor Stem Cell Enrichment Set—DM) was used to isolate CD117 cells. Enrichment for CD117 was confirmed by flow cytometry. CD117+ enriched cells were labeled with CD117-APC (BD Pharmingen™ catalog #558451) antibody. Cells were co-labelled with control IgG antibody (BD Pharmingen™ catalog #555746) for gating purposes. To quantify GFP expression, after CD117 co-labelling, flow cytometry was performed using FACScaliburS by resuspending cells in PBS/1% FBS where green fluorescent cells are measured in the Fl1 channel and APC stained cells are in the Fl4 channel Antibodies for other markers were Ter119 (BD Pharmingen™ catalog #561033) and CD45 APC (BD Pharmingen™ catalog #561018).
To explore the mechanism of the increased gene editing in CD117+ cells, the requirement of c-Kit-dependent signaling for elevated gene correction or whether CD117 simply serves as a marker for the increased susceptibility to gene editing was distinguished. To do this, γtcPNA4/donor DNA NP-mediated gene editing was assayed in pre-sorted CD117+ cells in the presence or absence of selected kinase inhibitors (FIG. 2D). Dasatinib, which inhibits the c-Kit kinase in addition to the BCR/Abl and Src kinases, reduced the gene editing from 7% to 2.0%.

[3] = tested on: homology-dependent repair (HDR); assay: Luciferase reporter gene assay for homology-dependent repair (HDR) in CD117+ cells; format: cell-based, mouse; settings: CD117+ cells
Protocol: An inactivating I-Sce1 site was cloned 56 amino acids into the firefly luciferase open reading frame under the control of a CMV promoter. The reporter construct also contains a promoterless luciferase gene used as a template for homologous recombination. A double-strand break in the luciferase reporter is created by in vitro digestion with the I-Sce I restriction enzyme (NEB #R0694L). Plasmid DNA was digested with I-Sce 1 for 1 hour at 37° C. at a ratio of 10 units enzyme to 1 μg DNA and then the enzyme was inactivated at 65° C. for 20 minutes. The linearization of the plasmid was confirmed for each digestion via gel electrophoresis and the linear plasmid was purified using the Qiagen Qiaquick spin columns. After separation CD117+ and CD117-cells from bone marrow of β-globin/GFP transgenic mice, cells were transfected using the Lonza 2b Nucleofector Device. 5×10^5 cells were transfected with 1 μg of either the luciferase reporter vector or a positive control firefly luciferase expression vector, along with 50 ng of a renilla luciferase expression plasmid as a transfection efficiency control. All transfections were performed in triplicate. After transfection the cells were plated at a density of 5×10^5 cells/ml in 12-well plates. After 24 hours incubation post transfection, luciferase activity was measured using the Promega Dual Luciferase Assay Kit. In each sample firefly luciferase activity was normalized to the renilla luciferase transfection control. Reporter reactivation was calculated as a ratio of normalized firefly luciferase activity in the cells transfected with the reporter plasmid to the positive control.
To test whether the above increases in DNA repair gene expression could be correlated with functional differences in DNA repair, a luciferase-based assay was used to quantify repair of DNA double-strand breaks (DSBs) by HDR. In this assay, repair of a DSB in a reporter plasmid via intramolecular homologous recombination creates (“reactivates”) a functional luciferase gene (FIG. 2H), and so the assay provides a measure of HDR capacity (FIG. 2J).

[4] = tested on: 120-bp DNA duplexes containing the respective target sequences (β-globin intron 2); assay: DNA binding gel shift assay of tcPNAs; design: species or system human; settings: 120-bp dsDNA, 37 C, 10 mM NaPi pH 7.4
Protocol: For gel electrophoresis, synthetic 120 bp dsDNA targets were incubated with indicated oligomers at 37 C in low ionic strength buffer (10 mM NaPi, pH 7.4). The samples were separated on 10% non-denaturing polyacrylamide gels in 1×TBE buffer. The gels were run at […] for 1.5 hr. After electrophoresis, the gels were stained with 1×SYBR-Gold (catalog #S11494, Invitrogen) for 10 min, washed 2× with 1×TBE buffer, and then imaged using a gel documentation system (BioDoc-It System). The images were then inverted using Adobe Photoshop 6.0.

[5] = tested on: IVS2-654 (C→T) mutation within the β-globin/GFP fusion gene; assay: Ex vivo gene correction (% GFP+ cells, flow cytometry) in bone marrow cells from β-globin/GFP transgenic mice; format: cell-based, mouse; settings: total bone marrow cells, 2 mg/ml PLGA NPs with donor DNA, 48 hr
Text: To assay for gene editing in a robust and quantitative manner, a transgenic mouse model was utilized with a β-globin/GFP fusion transgene of human β-globin intron 2 carrying a thalassemia-associated IVS2-654 (C→T) mutation embedded within the GFP coding sequence, resulting in incorrect splicing of β-globin/GFP mRNA and lack of GFP expression (Sazani, et al., Nat. Biotechnol., 20:1228-1233 (2002)). PNA-mediated triplex-formation induces DNA repair and recombination of the genomic site with a 60-nucleotide sense donor DNA that is homologous to a portion of the β-globin intron 2 sequence except for providing a wild-type nucleotide at the IVS2-654 position. Via recombination, the splice-site mutation is corrected and expression of functional GFP occurs (FIG. 1A) (McNeer, et al., Gene Therapy, 20:658-669 (2013); Bahal, et al., Curr. Gene Ther., 14:331-342 (2014)). […]
BD Bioscience kit catalog #558451 (BDImag™ Hematopoietic Progenitor Stem Cell Enrichment Set—DM) was used to isolate CD117 cells. […] To quantify GFP expression, after CD117 co-labelling, flow cytometry was performed using FACScaliburS by resuspending cells in PBS/1% FBS where green fluorescent cells are measured in the Fl1 channel and APC stained cells are in the Fl4 channel Antibodies for other markers were Ter119 (BD Pharmingen™ catalog #561033) and CD45 APC (BD Pharmingen™ catalog #561018).

[6] = tested on: skin fibroblasts from β-globin/GFP mice, IVS2-654 (C→T) mutation; assay: GFP/beta globin gene correction assay in mouse skin fibroblasts with DNA repair or other small molecule inhibitors; format: cell-based; settings: inhibitor given 48 hours before tcPNA1 + donor DNA nanoparticles, flow cytometry 72 hours later
Protocol: Skin fibroblasts were isolated from the β-globin/GFP mice (intron 2 of human β-globin inserted with in the GFP coding regions) and grown in culture in DMEM medium plus 10% FCS. The intron contains the IVS2-654 (C→T) mutation. The gene correction assay is illustrated in FIG. 5A.
The fibroblasts were treated ex vivo with nanoparticles containing tcPNA1+ Donor DNA and 72 hours later flow cytometry analysis was performed to quantify the % gene correction based on the frequency of GFP positive cells. In some cases, DNA repair inhibitors or other small molecule inhibitors were given 48 hours before the nanoparticle treatment.

In the case of “H-KKK-TTJJTJT-OOO-TCTCCTTAAACCTGTCTT-KKK-NH2 (TTNNTNTTCTCCTTAAACCTGTCTT; listed as DNA, chemistry not fully specified) [SCD-tcPNA 2]”, the “binding to 120 bp double-stranded DNA fragments (gel mobility shift)” value (“binding … (gel mobility shift)” for short) [1] is reported as “binding”.

For `Cn1cnc2c(F)c(Nc3ccc(Br)cc3F)c(C(=O)NOCCO)cc21` [MEK162, reference compound], the “gene editing frequency in pre-sorted CD117+ cells in presence of kinase inhibitor” value (shortened to “gene editing frequency … of kinase inhibitor”) [2] was 2.6% and the “HDR repair activity (luciferase reactivation) in CD117+ cells” value [3] was “diminished”.

For “H-KKK-TTJTTTJTTJTJ-OOO-CTCTTCTTTCTTGACAGG-KKK-NH2 (TTNTTTNTTNTNCTCTTCTTTCTTGACAGG; lysine caps, linker, C-terminal amide, chemistry not fully specified) [γtcPNA4-Scr, scrambled version of γtcPNA4 with the same base composition]”, the “binding to target site in duplex DNA (gel shift)” value [4] was “No binding” and the “genome modification frequency (% GFP+ cells)” value [5] was “no modification”.

With `O=C(c1cc(Cc2n[nH]c(=O)c3ccccc23)ccc1F)N1CCN(C(=O)C2CC2)CC1` [AZD-2281] the “effect on gene editing (% gene correction, GFP positive cells)” value [6] was “boosts gene editing”.

“H-KKK-TJTJTTJT-OOO-TCTTCTCTGTCTCCACAT-KKK-NH2 (TNTNTTNTTCTTCTCTGTCTCCACAT; listed as DNA, chemistry not fully specified) [SCD-tcPNA 3]” was tested, and the “binding … (gel mobility shift)” value [1] was “binding”.

For `Nc1cc(C(F)(F)F)c(-c2cc(N3CCOCC3)nc(N3CCOCC3)n2)cn1` [BKM120, reference compound], the “gene editing frequency … of kinase inhibitor” value [2] was 4.1% and the “HDR repair activity (luciferase reactivation) in CD117+ cells” value [3] was “diminished”.

For `CC(C)c1cc(-c2n[nH]c(=O)n2-c2ccc3c(ccn3C)c2)c(O)cc1O` [STA-9090/Ganetespib], the “effect on gene editing (% gene correction, GFP positive cells)” value [6] was “enhances gene editing”.

With `Cc1nc(Nc2ncc(C(=O)Nc3c(C)cccc3Cl)s2)cc(N2CCN(CCO)CC2)n1` [Dasatinib] the “fold reduction of gene editing frequency” value ([2]; CD117+ cells, inhibition of c-Kit kinase) was about 4 fold and the “gene editing frequency … of kinase inhibitor” value [2] was 2.0%.

“H-KKK-JTTTJTTTJTJT-OOO-TCTCTTTCTTTCAGGGCA-KKK-NH2 (NTTTNTTTNTNTTCTCTTTCTTTCAGGGCA; miniPEG γ units, lysine caps, amide, chemistry not fully specified) [γtcPNA4]” was tested, and the “genome modification frequency (% GFP+ cells)” value [5] was 1.62%.

In the case of “H-KKK-JJTJTTJ-OOO-CTTCTCCACAGGAGTCAG-KKK-NH2 (NNTNTTNCTTCTCCACAGGAGTCAG; listed as DNA, chemistry not fully specified) [SCD-tcPNA 1]”, the “binding … (gel mobility shift)” value [1] is reported as “binding”.

With `C[C@@]1(CO)[C@H](O)CC[C@@]2(C)[C@H]1CC[C@H]1C[C@@H]3C[C@@]12CC[C@]3(O)CO` [aphidicolin] the “effect on gene editing (% gene correction, GFP positive cells)” value [6] was “boosts gene editing”.
